Measurements taken from US7666890B2, “Synthesis and herbicidal activity of 1- (2-substituted benzo[d]thiazol-5-yl)-1H-1,2,4-triazol-5(4H)-one derivatives” (Huazhong Normal University, priority 2007, dated 2010).

Key:
Echinochloa crusgalli = assay: Test of herbicidal activities (greenhouse pot method); format: in vivo; conditions: single dose 300 g ai./h, treated before/after germination, 15 days later, greenhouse pot; for inhibition at 300 g/ha: Echinochloa crus-galli, 360 h, read-out: Herbicidal activity Echinochloa crusgalli (inhibition level)
Procedure, shortened: (§1)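 Greenhouse pot test at a single dose of 300 g ai./h, applied by spray tower pre- or post-emergence, with grasses at the 2-leaf stage, in triplicate with a blank control. Plants were kept at 15–30 °C. Inhibition was graded after 15 days: A 90–100%, B 80–<90%, C 60–<80%, D 50–<60%, E <50%.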

Setaria viridis = assay: as above; format: in vivo; conditions: single dose 300 g ai./h, treated before/after germination, 15 days later, greenhouse pot; for inhibition at 300 g/ha: Setaria viridis, 360 h, read-out: Herbicidal activity Setaria viridis (inhibition level)
Procedure, shortened: as §1

Digiatria sanguinalis = assay: as above; format: in vivo; conditions: single dose 300 g ai./h, treated before/after germination, 15 days later, greenhouse pot; for inhibition at 300 g/ha: 360 h, read-out: Herbicidal activity Digiatria sanguinalis (inhibition level)
Procedure, shortened: as §1

Brassica juncea = assay: as above; format: in vivo; conditions: single dose 300 g ai./h, treated before/after germination, 15 days later, greenhouse pot; for inhibition at 300 g/ha: Brassica juncea, 360 h, read-out: Herbicidal activity Brassica juncea (inhibition level)
Procedure, shortened: as §1

Chenopodium album = assay: as above; format: in vivo; conditions: single dose 300 g ai./h, treated before/after germination, 15 days later, greenhouse pot; for inhibition at 300 g/ha: Chenopodium album, 360 h, read-out: Herbicidal activity Chenopodium album (inhibition level)
Procedure, shortened: as §1

Amaranthus retroflexus = assay: as above; format: in vivo; conditions: single dose 300 g ai./h, treated before/after germination, 15 days later, greenhouse pot; for inhibition at 300 g/ha: Amaranthus retroflexus, 360 h, read-out: Herbicidal activity Amaranthus retroflexus (inhibition level)
Procedure, shortened: as §1

Row | Structure (SMILES) | inhibition at 300 g/ha (Echinochloa crusgalli) | inhibition at 300 g/ha (Setaria viridis) | inhibition at 300 g/ha (Digiatria sanguinalis) | inhibition at 300 g/ha (Brassica juncea) | inhibition at 300 g/ha (Chenopodium album) | inhibition at 300 g/ha (Amaranthus retroflexus) | melting point | Herbicidal activity Echinochloa crusgalli (inhibition level) (Echinochloa crusgalli) | Herbicidal activity Setaria viridis (inhibition level) (Setaria viridis) | Herbicidal activity Digiatria sanguinalis (inhibition level) (Digiatria sanguinalis) | Herbicidal activity Brassica juncea (inhibition level) (Brassica juncea) | Herbicidal activity Chenopodium album (inhibition level) (Chenopodium album) | Herbicidal activity Amaranthus retroflexus (inhibition level) (Amaranthus retroflexus)
1 | Cc1nn(-c2cc3nc(S(=O)(=O)Cc4ccccc4Cl)sc3cc2Cl)c(=O)n1C(F)F [Compound 39, 1-(2-(2-chlorobenzylsulfonyl)-6-chlorobenzo[d]thiazol-5-yl)-4-(difluoromethyl)-3-methyl-1H-1,2,4-triazol-5(4H)-one] | < 50% | 60 to 80% | 60 to 80% | 80 to 90% | 60 to 80% | 80 to 90% | 196 to 198 °C |  |  |  |  |  | 
2 | Cc1nn(-c2cc3nc([S+]([O-])Cc4ccccc4)sc3cc2F)c(=O)n1C (stereo not drawn) [Compound 101, 1-(2-(benzylsulfinyl)-6-fluorobenzo[d]thiazol-5-yl)-3,4-dimethyl-1H-1,2,4-triazol-5(4H)-one] | 80 to 90% | 60 to 80% | 60 to 80% | 50 to 60% | 80 to 90% | 60 to 80% | 162 to 164 °C |  |  |  |  |  | 
3 | Cc1nn(-c2cc3nc([S+](C)[O-])sc3cc2F)c(=O)n1C (stereo not drawn) [Compound 102, 1-(6-fluoro-2-(methylsulfinyl)benzo[d]thiazol-5-yl)-3,4-dimethyl-1H-1,2,4-triazol-5(4H)-one] | < 50% | 60 to 80% | 50 to 60% | 60 to 80% | 90 to 100% | 80 to 90% | 199 to 201 °C |  |  |  |  |  | 
4 | CCOC(=O)C(C)Sc1nc2cc(-n3nc(C(F)(F)F)n(C(F)F)c3=O)c(Cl)cc2s1 (stereo not drawn) [Compound 124] |  |  |  |  |  |  |  | D (50 ≦ D < 60%) | A (90 ≦ A ≦ 100%) | E (E < 50%) | B (80 ≦ B < 90%) | B (80 ≦ B < 90%) | B (80 ≦ B < 90%)
5 | CSc1nc2cc(-n3nc(C(F)(F)F)n(C(F)F)c3=O)c(Cl)cc2s1 [Compound 125] |  |  |  |  |  |  |  | B (80 ≦ B < 90%) | C (60 ≦ C < 80%) | B (80 ≦ B < 90%) | C (60 ≦ C < 80%) | B (80 ≦ B < 90%) | A (90 ≦ A ≦ 100%)
6 | CCCCSc1nc2cc(-n3nc(C(F)(F)F)n(C(F)F)c3=O)c(Cl)cc2s1 [Compound 126] |  |  |  |  |  |  |  | B (80 ≦ B < 90%) | C (60 ≦ C < 80%) | A (90 ≦ A ≦ 100%) | A (90 ≦ A ≦ 100%) | B (80 ≦ B < 90%) | B (80 ≦ B < 90%)
7 | CCOC(=O)CSc1nc2cc(-n3nc(C(F)(F)F)n(C(F)F)c3=O)c(Br)cc2s1 [Compound 127] |  |  |  |  |  |  |  | C (60 ≦ C < 80%) | D (50 ≦ D < 60%) | B (80 ≦ B < 90%) | B (80 ≦ B < 90%) | B (80 ≦ B < 90%) | B (80 ≦ B < 90%)
8 | C=CCSc1nc2cc(-n3nc(C(F)(F)F)n(C(F)F)c3=O)c(Br)cc2s1 [Compound 128] |  |  |  |  |  |  |  | A (90 ≦ A ≦ 100%) | D (50 ≦ D < 60%) | C (60 ≦ C < 80%) | A (90 ≦ A ≦ 100%) | B (80 ≦ B < 90%) | A (90 ≦ A ≦ 100%)
9 | CCCSc1nc2cc(-n3nc(C(F)(F)F)n(C(F)F)c3=O)c(Br)cc2s1 [Compound 129] |  |  |  |  |  |  |  | A (90 ≦ A ≦ 100%) | C (60 ≦ C < 80%) | A (90 ≦ A ≦ 100%) | C (60 ≦ C < 80%) | A (90 ≦ A ≦ 100%) | A (90 ≦ A ≦ 100%)
10 | C#CCSc1nc2cc(-n3nc(C)n(C(F)F)c3=O)c(F)cc2s1 [Compound 130] |  |  |  |  |  |  |  | B (80 ≦ B < 90%) | A (90 ≦ A ≦ 100%) | C (60 ≦ C < 80%) | D (50 ≦ D < 60%) | B (80 ≦ B < 90%) | A (90 ≦ A ≦ 100%)
